Assay results published in US20230279351A1, “ARTIFICIAL ANTIGEN-SPECIFIC IMMUNOREGULATORY T (AIRT) CELLS” (Seattle Children's Hospital (dba Seattle Children's …, priority 2019, published 2023).

Experiments:
[1] = test system: split IL-2 CISC (FRB-IL2RB and FKBP-IL2RG) dual-edited human CD4+ T cells; test: Enrichment of split IL-2 CISC dual-edited CD4+ T cells; format: cell-based
Experimental: FIG. 27 depicts an exemplary timeline of steps for dual AAV editing of CD4+ T cells, expansion with rapalog, and analysis of enriched cells. […] Flow cytometry to assess enrichment of GFP, mCherry double-positive cells was carried out on days 6, 8, and 10 post-editing.
CISC components (IL2RG vs. IL2RB) are split between 2 constructs and co-expressed with either HA-FoxP3 cDNA or the islet-specific TCR, T1D4 (AAVs #3240 and #3243 respectively). Each repair template is flanked by identical homology arms that […] the gRNA targeting the TRAC locus. […] Panel B depicts a timeline of key steps for dual AAV/RNP-based editing of CD4+ T cells, expansion with Rapalog and analysis of enriched cells. […] Flow cytometry to assess enrichment of HA-FoxP3, TCR double-positive cells was carried out on days 5 and 8 post-editing.
FIG. 60 relates to a strategy for testing two-loci dual-editing of human CD4+ T cells. […] CISC components are split between 2 constructs and co-expressed with either mCherry or GFP ([…]). Repair templates are flanked by homology arms matched to gRNAs targeting either the TRAC or FOXP3 locus, respectively. […] Panel B depicts a timeline showing steps for dual AAV editing of CD4+ T cells and expansion with Rapalog. Human CD4+ T cells were edited using human TRAC gRNA_4, human FOXP3 gRNA_T9 and #3251 (MND.mCherry.FKBP.IL2RG) and #3207 (MND.GFP.FRB.IL2RB) AAV constructs (two-loci dual editing). Immediately following electroporation, the cells were placed in either 20% or 2.5% FBS containing media (recovery media). After ~16 h, the media was replaced with 20% FBS containing media and FACS analysis done on day 3 to determine editing rate.
In order to obtain sufficient numbers of cells for therapeutic use, it may be useful, in some contexts, to selectively expand engineered cells in vitro. […] See e.g., FIG. 108. In such methods, FRB-IL2RB and FKBP-IL2RG components were contained in the same cassette to select for single integration events.
For these studies, FRB-IL2RB and FKBP-IL2RG components were split into two separate cassettes, one containing GFP and the other containing mCherry, to allow for selection of two independent integrations.
A timeline for key steps for dual AAV editing of CD4+ T cells and expansion with Rapalog is depicted in FIG. 124B. […] Briefly, human CD4+ T cells were edited using human TRAC gRNA_4, and #3240 (MND.HA.FOXP3.FKBP.IL2RG) and #3243 (MND.T1D4.FRB.IL2RB) AAV constructs (single-locus dual editing). Immediately following electroporation, the cells were placed in 2.5% FBS containing media (recovery media) for ~24 hours and then maintained in 20% FBS containing media throughout the rest of the experiment.

[2] = test system: split-DISC (#3280 and #3207) dual-edited human CD4+ T cells; test: Enrichment/expansion of split-DISC dual-edited CD4+ T cells; format: cell-based; conditions: 7-day treatment in AP21967 in gREX, from 340,000 cells seeded
Experimental: Cells were bead-stimulated (CD3/CD28) for 3 days prior to editing. […] Panel C depicts flow plots show the percentage of GFP/mCherry double-positive cells on day 3 post-editing.
Dual-editing was performed as described in FIG. 70.
Split-DISC constructs were used to determine the enrichment and expansion of dual-edited T cells. The ability to scale up manufacturing to obtain cell numbers sufficient for animal studies by expanding edited CD4+ T cells in gREX flasks was assessed. In particular, dual-editing and enrichment of human CD4+ T Cells using split-DISC constructs was studied. […] Each repair template (#3280 and #3207) was flanked by identical homology arms matched to a gRNA targeting the TRAC locus. […] Cells were bead stimulated (CD3/CD28) for 3 days prior to editing. Immediately following electroporation, the cells were placed in 2.5% FBS containing media (recovery media) for ~24 hours and then maintained in 20% FBS containing media throughout the rest of the experiment. Three days post editing, cells were analyzed by flow for GFP and mCherry expression, and then expanded in media containing 50 ng/ml human IL-2 or 100 nM Rapalog.
Cells were bead stimulated (CD3/CD28) for 3 days prior to editing. Three days post editing, cells were analyzed by flow for GFP and mCherry expression, and then expanded in media containing 100 nM Rapalog for an additional 7 days.

Compound: CO[C@H]1[C@@H](O)[C@H](C)C[C@H](C)/C=C/C=C/C=C(\C)[C@@H](c2c[nH]c3c(C)cccc23)C[C@@H]2CC[C@@H](C)[C@@](O)(O2)C(=O)C(=O)N2CCCC[C@H]2C(=O)O[C@H]([C@H](C)C[C@@H]2CC[C@@H](O)[C@H](OC)C2)C[C@H](O)[C@H](C)/C=C(\C)[C@H]1O [Rapalog]
- enrichment of double-positive cells ([1]; #3240 and #3243, cells recovered in 2.5% FBS, 7 days of Rapalog treatment): ~10 fold
- FOXP3/T1D4 double positive cells ([1]; #3240 and #3243, day 7, 100 nM AP21967 or 50 ng/mL IL-2, initial 1.6%): 19.1%
- GFP/mCherry double-positive cells ([1]; donor R003471, enriched in presence of Rapalog (FIG. 32)): 28.5%
- GFP/mCherry double-positive cells ([1]; donor R003657, enriched in presence of Rapalog (FIG. 32)): 13.8%
- enrichment of double-positive antigen-specific Treg population ([1]; over the course of the 10 day study): approximately 15 fold
- GFP/mCherry double-positive cells ([1]; two-loci #3207 and #3251, repeat experiment (FIG. 65), 10 days, initial 15.4%): 54%
- expansion of double positive cells [2]: 32 fold
